# Reference: patent publication US20240279236A1, “COMPOUNDS AND METHODS OF TREATING TUBERCULOSIS” (Fimbrion Therapeutics, Inc., priority 2021, published 2024)
# pIC50: −log10 of the molar value.
# Test system: WT Mtb Erdman strain
# Assay: Microplate Alamar Blue Assay (MABA), Mtb growth inhibition
# Assay type: cell-based, Mycobacterium tuberculosis
# Settings: Mycobacterium tuberculosis, ERDMAN, 168 h, Middlebrook 7H9 media, 7 days at 37° C. in 5% CO2
row,SMILES,pIC50
1,"Cc1cc2c(NCCCc3ccc(-c4cc(F)c(Cl)c(F)c4)cc3)nc(-c3ccoc3)nc2s1 [Example 331, N-(3-(4′-chloro-3′,5′-difluoro-[1,1′-biphenyl]-4-yl)propyl)-2-(furan-3-yl)-6-methylthieno[2,3-d]pyrimidin-4-amine]",7.52
2,"Cc1cc2c(NCCCc3ccc(-c4cnoc4)cc3)nc(-c3ccoc3)nc2s1 [Example 332, 2-(furan-3-yl)-6-methyl-N-(3-[4-(1,2-oxazol-4-yl)phenyl]propyl) thieno[2,3-d]pyrimidin-4-amine]",7.10
3,"C#Cc1ccc(-c2ccc(CCCNc3nc(-c4ccoc4)nc4sc(C)cc34)cc2)cc1 [Example 333, N-(3-(4′-ethynyl-[1,1′-biphenyl]-4-yl)propyl)-2-(furan-3-yl)-6-methylthieno[2,3-d]pyrimidin-4-amine]",7.92
4,"Cc1cc2c(NCCCc3ccc(-c4ccsc4)cc3)nc(-c3ccoc3)nc2s1 [Example 334, 2-(furan-3-yl)-6-methyl-N-(3-[4-(thiophen-3-yl)phenyl]propyl) thieno[2,3-d]pyrimidin-4-amine]",8.10
5,"Cc1ccc(-c2ccc(CCCNc3nc(-c4ccoc4)nc4sc(C)cc34)cc2)o1 [Example 335, 2-(furan-3-yl)-6-methyl-N-(3-[4-(5-methylfuran-2-yl)phenyl]propyl) thieno[2,3-d]pyrimidin-4-amine]",7.06
6,"Cc1ccc(-c2ccc(CCCNc3nc(-c4ccoc4)nc4sc(C)cc34)cc2)s1 [Example 336, 2-(furan-3-yl)-6-methyl-N-(3-[4-(5-methylthiophen-2-yl)phenyl]propyl)thieno[2,3-d]pyrimidin-4-amine]",7.82
7,"Cc1cc2c(NCCCc3ccc(-c4ccco4)cc3)nc(-c3ccoc3)nc2s1 [Example 337, N-(3-[4-(furan-2-yl)phenyl]propyl)-2-(furan-3-yl)-6-methylthieno[2,3-d]pyrimidin-4-amine]",7.51
8,"Cc1cc2c(NCCCc3ccc(-c4ccoc4)cc3)nc(-c3ccoc3)nc2s1 [Example 338, 2-(furan-3-yl)-N-(3-[4-(furan-3-yl)phenyl]propyl)-6-methylthieno[2,3-d]pyrimidin-4-amine]",7.82
9,"Cc1cc2c(NCCCc3ccc(-c4ccc(C(F)(F)F)cc4)cc3)nc(-c3ccoc3)nc2s1 [Example 339, 2-(furan-3-yl)-6-methyl-N-(3-[4′-(trifluoromethyl)-[1,1′-biphenyl]-4-yl]propyl)thieno [2,3-d]pyrimidin-4-amine]",> 7.82
10,"Cc1cc2c(NCCCc3ccc(-c4cccc([N+](=O)[O-])c4)cc3)nc(-c3ccoc3)nc2s1 [Example 340, 2-(furan-3-yl)-6-methyl-N-(3-(3′-nitro-[1,1′-biphenyl]-4-yl)propyl)thieno [2,3-d]pyrimidin-4-amine]",7.60
11,"Cc1cc2c(NCCCc3ccc(-c4ccc(C(C)(C)O)cc4)cc3)nc(-c3ccoc3)nc2s1 [Example 341, 2-[4′-(3-([2-(furan-3-yl)-6-methylthieno[2,3-d]pyrimidin-4-yl]amino)propy1)-[1,1′-biphenyl]-4-yl]propan-2-ol]",6.85
12,"Cc1cc2c(NCCCc3ccc(-c4ccc5nonc5c4)cc3)nc(-c3ccoc3)nc2s1 [Example 343, N-(3-[4-(2,1,3-benzoxadiazol-5-yl)phenyl]propyl)-2-(furan-3-yl)-6-methylthieno[2,3-d]pyrimidin-4-amine]",> 7.82
13,"Cc1cc2c(NCCCc3ccc(-c4cnc(F)c(C)c4)cc3)nc(-c3ccoc3)nc2s1 [Example 344, N-(3-[4-(6-fluoro-5-methylpyridin-3-yl)phenyl]propyl)-2-(furan-3-yl)-6-methylthieno[2,3-d]pyrimidin-4-amine]",7.13
14,"CCc1nc(NCCCc2ccc(-c3ccccn3)cc2)c2cc(C)sc2n1 [Example 368, 2-ethyl-6-methyl-N-(3-(4-(pyridin-2-yl)phenyl)propyl) thieno[2,3-d] pyrimidin-4-amine]",6.68
15,"CCc1nc(NCCCc2ccc(-c3cnc(C(F)(F)F)cn3)cc2)c2cc(C)sc2n1 [Example 369, 2-ethyl-6-methyl-N-(3-(4-(5-(trifluoromethyl)pyrazin-2-yl)phenyl)propyl)thieno[2,3-d]pyrimidin-4-amine]",7.68
16,"CCc1nc(NCCCc2ccc(-c3ccc(C(F)(F)F)cn3)cc2)c2cc(C)sc2n1 [Example 370, 2-ethyl-6-methyl-N-(3-(4-(5-(trifluoromethyl)pyridin-2-yl)phenyl)propyl)thieno[2,3-d]pyrimidin-4-amine]",7.60
17,"CCc1nc(NCCCc2ccc(-c3cnccn3)cc2)c2cc(C)sc2n1 [Example 371, 2-ethyl-6-methyl-N-(3-(4-(pyrazin-2-yl)phenyl)propyl) thieno[2,3-d]pyrimidin-4-amine]",6.82
18,"CCc1nc(NCCCc2ccc(-c3ncccn3)cc2)c2cc(C)sc2n1 [Example 372, 2-ethyl-6-methyl-N-(3-(4-(pyrimidin-2-yl)phenyl)propyl) thieno[2,3-d]pyrimidin-4-amine]",6.60
19,"CCc1nc(NCCCc2ccc(-c3cccnn3)cc2)c2cc(C)sc2n1 [Example 373, 2-ethyl-6-methyl-N-(3-(4-(pyridazin-3-yl)phenyl)propyl) thieno[2,3-d] pyrimidin-4-amine]",6.00

row,SMILES,pIC50
1,"CCc1nc(NCCCc2ccc(-c3ccc(OC(F)(F)F)cc3F)cc2)c2cc(C)sc2n1 [Example 374, 2-ethyl-N-(3-(2′-fluoro-4′-(tri-fluoromethoxy)-[1,1′-biphenyl]-4-yl)propyl)-6-methylthieno[2,3-d]pyrimidin-4-amine]",7.52
2,"CCc1nc(NCCCc2ccc(-c3ccnnc3)cc2)c2cc(C)sc2n1 [Example 375, 2-ethyl-6-methyl-N-(3-(4-(pyridazin-4-yl)phenyl)propyl) thieno[2,3-d]pyrimidin-4-amine]",6.07
3,"CCc1nc(NCCCc2ccc(-c3ccc(OC(F)(F)F)cn3)cc2)c2cc(C)sc2n1 [Example 376, 2-ethyl-6-methyl-N-(3-(4-(5-(trifluoro-methoxy)pyridin-2-yl)phenyl)propyl)thieno [2,3-d]pyrimidin-4-amine]",7.26
4,"Cc1cc2c(NCCCc3ccc(-c4cnc(F)cn4)cc3)nc(-c3ccoc3)nc2s1 [Example 377, N-(3-[4-(5-fluoropyrazin-2-yl)phenyl]propyl)-2-(furan-3-yl)-6-methylthieno [2,3-d]pyrimidin-4-amine]",8.10
5,"Cc1cc2c(NCCCc3ccc(-c4cnc(C5CC5)cn4)cc3)nc(-c3ccoc3)nc2s1 [Example 378, N-(3-[4-(5-cyclopropyl-pyrazin-2-yl)phenyl]propyl)-2-(furan-3-yl)-6-methylthieno[2,3-d]pyrimidin-4-amine]",7.20
6,"Cc1cc2c(NCCCc3ccc(-c4cnc(C(F)(F)F)cn4)cc3)nc(-c3ccoc3)nc2s1 [Example 379, 2-(furan-3-yl)-6-methyl-N-(3-(4-[5-(trifluoromethyl)pyrazin-2-yl]phenyl)propyl) thieno[2,3-d]pyrimidin-4-amine]",7.92
7,"COc1cnc(-c2ccc(CCCNc3nc(-c4ccoc4)nc4sc(C)cc34)cc2)cn1 [Example 380, 2-(furan-3-yl)-N-(3-[4-(5-methoxypyrazin-2-yl)phenyl]propyl)-6-methylthieno[2,3-d]pyrimidin-4-amine]",7.77
8,"Cc1cc2c(NCCCc3ccc(-c4cnc(N(C)C)cn4)cc3)nc(-c3ccoc3)nc2s1 [Example 381, 5-[4-(3-([2-(furan-3-yl)-6-methylthieno[2,3-d]pyrimidin-4-yl]amino)propyl)phenyl]-N,N-dimethyl-pyrazin-2-amine]",7.41
9,"Cc1cc2c(NCCCc3ccc(-c4ccc(F)cn4)cc3)nc(-c3ccoc3)nc2s1 [Example 382, N-(3-[4-(5-fluoropyridin-2-yl)phenyl]propyl)-2-(furan-3-yl)-6-methylthieno[2,3-d]pyrimidin-4-amine]",8.10
10,"Cc1cc2c(NCCCc3ccc(-c4cncc(C(F)(F)F)n4)cc3)nc(-c3ccoc3)nc2s1 [Example 383, 2-(furan-3-yl)-6-methyl-N-(3-(4-[6-(trifluoromethyl)pyrazin-2-yl]phenyl)propyl) thieno[2,3-d]pyrimidin-4-amine]",6.64
11,"Cc1cc2c(NCCCc3ccc(-c4ccc(F)nc4)cc3)nc(-c3ccoc3)nc2s1 [Example 384, N-(3-[4-(6-fluoropyridin-3-yl)phenyl]propyl)-2-(furan-3-yl)-6-methylthieno[2,3-d]pyrimidin-4-amine]",8.22
12,"Cc1cc2c(NCCCc3ccc(-c4ccnc(C(F)(F)F)n4)cc3)nc(-c3ccoc3)nc2s1 [Example 385, 2-(furan-3-yl)-6-methyl-N-(3-(4-[2-(trifluoromethyl)pyrimidin-4-yl]phenyl)propyl) thieno[2,3-d]pyrimidin-4-amine]",6.70
13,Cc1cc2c(NCCCc3ccc(-c4cnc(C(F)(F)F)nc4)cc3)nc(-c3ccoc3)nc2s1 [Example 386],6.66
14,"Cc1cc2c(NCCCc3ccc(-c4ccc(C(F)(F)F)cn4)cc3)nc(-c3ccoc3)nc2s1 [Example 387, 2-(furan-3-yl)-6-methyl-N-(3-(4-[5-(trifluoromethyl)pyridin-2-yl]phenyl)propyl) thieno[2,3-d]pyrimidin-4-amine]",8.30
15,"Cc1cc2c(NCCCc3ccc(-c4ccc(OC(F)(F)F)cn4)cc3)nc(-c3ccoc3)nc2s1 [Example 388, 2-(furan-3-yl)-6-methyl-N-(3-(4-[5-(trifluoro-methoxy)pyridin-2-yl]phenyl)propyl)thieno[2,3-d]pyrimidin-4-amine]",8.15
16,"Cc1cc2c(NCCCc3ccc(-c4ccc(C(F)(F)F)nn4)cc3)nc(-c3ccoc3)nc2s1 [Example 389, 2-(furan-3-yl)-6-methyl-N-(3-(4-[6-(trifluoro-methyl)pyridazin-3-yl]phenyl)propyl)thieno[2,3-d]pyrimidin-4-amine]",7.49
17,"Cc1cc2c(NCCCc3ccc(-c4ccnc(O)c4)cc3)nc(-c3ccoc3)nc2s1 [Example 390, 4-[4-(3-([2-(furan-3-yl)-6-methylthieno[2,3-d]pyrimidin-4-yl]amino)propyl)phenyl]pyridin-2-ol]",5.03
18,"Cc1cc2c(NCCCc3ccc(-c4cnccn4)cc3)nc(-c3ccoc3)nc2s1 [Example 391, 2-(furan-3-yl)-6-methyl-N-(3-[4-(pyrazin-2-yl)phenyl]propyl) thieno[2,3-d]pyrimidin-4-amine]",7.21
